Active and inactive are the calls of the source.
Assays:
[1] = target: Nucleotide-binding oligomerization domain-containing protein 2 (Homo sapiens, UniProt Q9HC29); assay: NOD2 signaling inhibitors, cell-based, luminescence, uHTS, HEK293 (AID 1566); assay type: functional
HEK293 [2] = assay: cells; assay type: functional, cell-based; conditions: Homo sapiens
HEK293 [3] = assay: NOD1 signaling inhibitors, primary screen, cell-based, luminescence, uHTS (AID 1578); assay type: functional; conditions: Homo sapiens
HEK293 [4] = assay: cells; assay type: functional, cell-based; conditions: Homo sapiens; remark: listed apart in the source
HEK293 [5] = assay: cells; assay type: functional, cell-based; conditions: Homo sapiens; remark: listed apart in the source
HEK293 [6] = assay: NOD2 signaling inhibitors in MDP-stimulated cells, cell-based, uHTS, luminescence (AID 2001); assay type: functional; conditions: Homo sapiens
Cytochrome P450 3A4 [7] = target: T1, Cytochrome P450 3A4 (Homo sapiens, UniProt P08684);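 also: CYP3A4 tested as one member of a cytochrome P450 panel screen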
T1 sequence (P08684 whole entry): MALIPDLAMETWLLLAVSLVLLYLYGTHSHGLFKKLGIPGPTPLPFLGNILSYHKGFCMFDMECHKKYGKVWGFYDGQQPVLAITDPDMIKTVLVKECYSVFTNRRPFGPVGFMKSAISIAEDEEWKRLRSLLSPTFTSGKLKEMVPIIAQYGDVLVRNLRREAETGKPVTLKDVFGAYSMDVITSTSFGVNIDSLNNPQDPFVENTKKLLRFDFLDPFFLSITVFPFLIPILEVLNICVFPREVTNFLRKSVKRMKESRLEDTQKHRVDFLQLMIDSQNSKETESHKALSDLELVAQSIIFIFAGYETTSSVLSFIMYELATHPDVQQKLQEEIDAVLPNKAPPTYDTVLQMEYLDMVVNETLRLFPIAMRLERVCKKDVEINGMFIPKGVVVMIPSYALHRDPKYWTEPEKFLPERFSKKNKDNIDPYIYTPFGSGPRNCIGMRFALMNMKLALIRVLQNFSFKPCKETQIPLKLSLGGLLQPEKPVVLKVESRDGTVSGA

Cytochrome P450 2C9 [8] = target: T2, Cytochrome P450 2C9 (Homo sapiens, UniProt P11712)
T2 sequence (P11712 whole entry): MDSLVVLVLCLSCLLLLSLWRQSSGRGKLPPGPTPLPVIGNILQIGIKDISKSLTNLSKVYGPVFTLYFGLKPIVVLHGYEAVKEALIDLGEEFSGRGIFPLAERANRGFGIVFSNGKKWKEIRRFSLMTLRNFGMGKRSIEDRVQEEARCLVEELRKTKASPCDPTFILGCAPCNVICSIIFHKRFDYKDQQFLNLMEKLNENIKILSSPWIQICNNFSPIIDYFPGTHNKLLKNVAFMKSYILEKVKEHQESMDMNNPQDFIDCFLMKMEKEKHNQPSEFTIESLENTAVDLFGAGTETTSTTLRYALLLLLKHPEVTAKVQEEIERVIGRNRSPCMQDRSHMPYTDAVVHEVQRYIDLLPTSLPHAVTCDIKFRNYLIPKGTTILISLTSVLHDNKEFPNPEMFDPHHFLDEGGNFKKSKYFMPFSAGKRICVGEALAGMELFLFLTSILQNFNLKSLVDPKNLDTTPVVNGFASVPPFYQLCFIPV

[9] = A Cell Based Secondary Assay To Explore Cytotoxicity of Compounds that Sensitize Mycobacterium Tuberculosis to Beta-Lactam Antibiotics.; assay type: functional
Protein RecA = target: T3, Protein RecA (Mycobacterium tuberculosis, UniProt P9WHJ3); assay: Fluorescence Cell-Free Homogeneous Dose Retest to Identify Inhibitors of RecA-Intein Splicing Activity. [Related pubchem assays (depositor defined):AID2097, AID2223, AID489010, AID492950]; assay type: functional
T3 sequence (P9WHJ3 whole entry): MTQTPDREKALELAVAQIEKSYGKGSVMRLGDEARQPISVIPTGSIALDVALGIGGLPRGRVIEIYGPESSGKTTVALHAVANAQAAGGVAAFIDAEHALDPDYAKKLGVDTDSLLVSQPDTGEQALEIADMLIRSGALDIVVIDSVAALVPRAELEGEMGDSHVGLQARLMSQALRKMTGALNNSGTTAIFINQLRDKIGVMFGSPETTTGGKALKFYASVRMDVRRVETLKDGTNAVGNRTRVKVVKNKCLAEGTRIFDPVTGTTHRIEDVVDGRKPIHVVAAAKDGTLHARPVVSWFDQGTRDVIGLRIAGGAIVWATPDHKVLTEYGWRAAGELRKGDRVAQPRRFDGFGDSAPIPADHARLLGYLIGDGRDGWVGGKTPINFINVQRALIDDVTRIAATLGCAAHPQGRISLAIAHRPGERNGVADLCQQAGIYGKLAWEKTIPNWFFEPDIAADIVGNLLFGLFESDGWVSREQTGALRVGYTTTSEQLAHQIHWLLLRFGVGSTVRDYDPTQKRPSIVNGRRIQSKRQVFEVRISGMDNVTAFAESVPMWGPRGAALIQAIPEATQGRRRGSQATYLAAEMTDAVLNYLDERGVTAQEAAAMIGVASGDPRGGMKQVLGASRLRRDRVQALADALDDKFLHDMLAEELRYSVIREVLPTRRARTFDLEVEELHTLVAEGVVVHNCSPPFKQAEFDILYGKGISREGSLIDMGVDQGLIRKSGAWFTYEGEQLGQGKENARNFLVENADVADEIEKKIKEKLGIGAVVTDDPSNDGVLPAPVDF

[10] = target: T4, Replicative DNA helicase DnaB (Mycobacterium tuberculosis, UniProt P9WMR3); assay: DnaB intein splicing inhibitors, dose response, biochemical, cell-free fluorescence (AID 449749); assay type: functional
T4 sequence (P9WMR3 whole entry): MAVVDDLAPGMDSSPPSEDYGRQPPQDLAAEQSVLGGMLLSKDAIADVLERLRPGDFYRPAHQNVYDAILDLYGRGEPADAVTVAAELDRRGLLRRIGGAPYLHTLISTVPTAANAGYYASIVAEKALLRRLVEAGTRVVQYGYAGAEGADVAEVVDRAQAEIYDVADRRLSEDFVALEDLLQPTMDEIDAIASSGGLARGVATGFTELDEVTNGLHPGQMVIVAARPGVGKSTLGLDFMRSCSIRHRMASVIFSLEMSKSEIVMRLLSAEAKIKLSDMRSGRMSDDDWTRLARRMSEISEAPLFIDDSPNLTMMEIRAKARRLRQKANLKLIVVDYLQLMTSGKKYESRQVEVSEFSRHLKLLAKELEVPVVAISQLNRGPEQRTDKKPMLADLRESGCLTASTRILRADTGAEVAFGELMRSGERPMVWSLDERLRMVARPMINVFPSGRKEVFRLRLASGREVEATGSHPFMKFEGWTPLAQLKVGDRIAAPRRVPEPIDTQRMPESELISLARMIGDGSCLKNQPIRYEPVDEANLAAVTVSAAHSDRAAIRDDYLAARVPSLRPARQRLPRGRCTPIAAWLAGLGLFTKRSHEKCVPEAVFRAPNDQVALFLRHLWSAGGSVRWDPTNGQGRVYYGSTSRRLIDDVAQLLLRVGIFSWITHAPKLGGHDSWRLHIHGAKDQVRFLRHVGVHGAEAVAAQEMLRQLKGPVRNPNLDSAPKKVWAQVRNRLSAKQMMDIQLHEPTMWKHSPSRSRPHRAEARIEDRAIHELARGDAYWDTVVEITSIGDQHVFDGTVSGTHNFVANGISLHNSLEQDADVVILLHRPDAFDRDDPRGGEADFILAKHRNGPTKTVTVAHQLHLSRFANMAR

Coagulation factor XII = target: T5, Coagulation factor XII (Homo sapiens, UniProt P00748); assay type: functional;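 also: activated factor XIIa alpha cleaving a fluorogenic AMC peptide substrate; inhibitor potency from loss of enzyme activity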
T5 sequence (P00748 whole entry): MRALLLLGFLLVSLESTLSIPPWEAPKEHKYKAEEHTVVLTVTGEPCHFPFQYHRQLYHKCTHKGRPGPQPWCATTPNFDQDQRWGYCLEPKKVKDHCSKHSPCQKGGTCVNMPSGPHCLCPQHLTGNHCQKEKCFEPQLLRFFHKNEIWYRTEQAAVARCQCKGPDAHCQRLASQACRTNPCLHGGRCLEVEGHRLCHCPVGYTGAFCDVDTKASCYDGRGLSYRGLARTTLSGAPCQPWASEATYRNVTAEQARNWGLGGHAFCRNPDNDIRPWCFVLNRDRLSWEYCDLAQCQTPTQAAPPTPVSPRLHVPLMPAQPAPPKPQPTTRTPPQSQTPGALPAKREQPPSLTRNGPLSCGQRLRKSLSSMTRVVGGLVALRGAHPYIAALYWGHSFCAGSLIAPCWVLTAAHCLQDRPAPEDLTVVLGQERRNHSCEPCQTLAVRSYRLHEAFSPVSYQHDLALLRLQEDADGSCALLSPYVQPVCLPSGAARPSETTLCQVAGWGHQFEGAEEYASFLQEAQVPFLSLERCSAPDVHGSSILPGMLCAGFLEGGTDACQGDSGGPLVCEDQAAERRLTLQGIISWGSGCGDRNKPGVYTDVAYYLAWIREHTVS

[11] = target: T6, Calpain-2 catalytic subunit (Sus scrofa, UniProt P43367); assay: pig calpain II inhibitor potency, dose response, biochemical, fluorogenic peptide substrate (AID 1420); assay type: functional
T6 sequence (P43367 whole entry): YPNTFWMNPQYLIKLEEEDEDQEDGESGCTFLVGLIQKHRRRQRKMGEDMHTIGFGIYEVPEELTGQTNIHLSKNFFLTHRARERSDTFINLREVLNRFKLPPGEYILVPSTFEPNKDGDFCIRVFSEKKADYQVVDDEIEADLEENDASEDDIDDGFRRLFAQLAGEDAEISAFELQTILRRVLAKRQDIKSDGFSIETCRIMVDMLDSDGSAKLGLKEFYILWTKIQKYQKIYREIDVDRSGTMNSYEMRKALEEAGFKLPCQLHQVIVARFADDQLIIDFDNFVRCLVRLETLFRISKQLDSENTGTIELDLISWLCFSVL

[12] = Luminescence Cell-Based Dose Retest to Confirm Inhibitors of Cancer Stem Cells. [Related pubchem assays (depositor defined):AID2717, AID2721]; assay type: functional; conditions: Homo sapiens
[13] = target: Heat shock protein HSP 90-alpha (Homo sapiens, UniProt P07900); assay type: functional, organism-based
[14] = target: T7, Voltage-gated N-type calcium channel alpha-1B subunit/Amyloid beta A4 precursor protein-binding family A member 1 (Homo sapiens, UniProt Q00975+Q02410); assay type: protein assay
T7 sequence (Q00975 whole entry): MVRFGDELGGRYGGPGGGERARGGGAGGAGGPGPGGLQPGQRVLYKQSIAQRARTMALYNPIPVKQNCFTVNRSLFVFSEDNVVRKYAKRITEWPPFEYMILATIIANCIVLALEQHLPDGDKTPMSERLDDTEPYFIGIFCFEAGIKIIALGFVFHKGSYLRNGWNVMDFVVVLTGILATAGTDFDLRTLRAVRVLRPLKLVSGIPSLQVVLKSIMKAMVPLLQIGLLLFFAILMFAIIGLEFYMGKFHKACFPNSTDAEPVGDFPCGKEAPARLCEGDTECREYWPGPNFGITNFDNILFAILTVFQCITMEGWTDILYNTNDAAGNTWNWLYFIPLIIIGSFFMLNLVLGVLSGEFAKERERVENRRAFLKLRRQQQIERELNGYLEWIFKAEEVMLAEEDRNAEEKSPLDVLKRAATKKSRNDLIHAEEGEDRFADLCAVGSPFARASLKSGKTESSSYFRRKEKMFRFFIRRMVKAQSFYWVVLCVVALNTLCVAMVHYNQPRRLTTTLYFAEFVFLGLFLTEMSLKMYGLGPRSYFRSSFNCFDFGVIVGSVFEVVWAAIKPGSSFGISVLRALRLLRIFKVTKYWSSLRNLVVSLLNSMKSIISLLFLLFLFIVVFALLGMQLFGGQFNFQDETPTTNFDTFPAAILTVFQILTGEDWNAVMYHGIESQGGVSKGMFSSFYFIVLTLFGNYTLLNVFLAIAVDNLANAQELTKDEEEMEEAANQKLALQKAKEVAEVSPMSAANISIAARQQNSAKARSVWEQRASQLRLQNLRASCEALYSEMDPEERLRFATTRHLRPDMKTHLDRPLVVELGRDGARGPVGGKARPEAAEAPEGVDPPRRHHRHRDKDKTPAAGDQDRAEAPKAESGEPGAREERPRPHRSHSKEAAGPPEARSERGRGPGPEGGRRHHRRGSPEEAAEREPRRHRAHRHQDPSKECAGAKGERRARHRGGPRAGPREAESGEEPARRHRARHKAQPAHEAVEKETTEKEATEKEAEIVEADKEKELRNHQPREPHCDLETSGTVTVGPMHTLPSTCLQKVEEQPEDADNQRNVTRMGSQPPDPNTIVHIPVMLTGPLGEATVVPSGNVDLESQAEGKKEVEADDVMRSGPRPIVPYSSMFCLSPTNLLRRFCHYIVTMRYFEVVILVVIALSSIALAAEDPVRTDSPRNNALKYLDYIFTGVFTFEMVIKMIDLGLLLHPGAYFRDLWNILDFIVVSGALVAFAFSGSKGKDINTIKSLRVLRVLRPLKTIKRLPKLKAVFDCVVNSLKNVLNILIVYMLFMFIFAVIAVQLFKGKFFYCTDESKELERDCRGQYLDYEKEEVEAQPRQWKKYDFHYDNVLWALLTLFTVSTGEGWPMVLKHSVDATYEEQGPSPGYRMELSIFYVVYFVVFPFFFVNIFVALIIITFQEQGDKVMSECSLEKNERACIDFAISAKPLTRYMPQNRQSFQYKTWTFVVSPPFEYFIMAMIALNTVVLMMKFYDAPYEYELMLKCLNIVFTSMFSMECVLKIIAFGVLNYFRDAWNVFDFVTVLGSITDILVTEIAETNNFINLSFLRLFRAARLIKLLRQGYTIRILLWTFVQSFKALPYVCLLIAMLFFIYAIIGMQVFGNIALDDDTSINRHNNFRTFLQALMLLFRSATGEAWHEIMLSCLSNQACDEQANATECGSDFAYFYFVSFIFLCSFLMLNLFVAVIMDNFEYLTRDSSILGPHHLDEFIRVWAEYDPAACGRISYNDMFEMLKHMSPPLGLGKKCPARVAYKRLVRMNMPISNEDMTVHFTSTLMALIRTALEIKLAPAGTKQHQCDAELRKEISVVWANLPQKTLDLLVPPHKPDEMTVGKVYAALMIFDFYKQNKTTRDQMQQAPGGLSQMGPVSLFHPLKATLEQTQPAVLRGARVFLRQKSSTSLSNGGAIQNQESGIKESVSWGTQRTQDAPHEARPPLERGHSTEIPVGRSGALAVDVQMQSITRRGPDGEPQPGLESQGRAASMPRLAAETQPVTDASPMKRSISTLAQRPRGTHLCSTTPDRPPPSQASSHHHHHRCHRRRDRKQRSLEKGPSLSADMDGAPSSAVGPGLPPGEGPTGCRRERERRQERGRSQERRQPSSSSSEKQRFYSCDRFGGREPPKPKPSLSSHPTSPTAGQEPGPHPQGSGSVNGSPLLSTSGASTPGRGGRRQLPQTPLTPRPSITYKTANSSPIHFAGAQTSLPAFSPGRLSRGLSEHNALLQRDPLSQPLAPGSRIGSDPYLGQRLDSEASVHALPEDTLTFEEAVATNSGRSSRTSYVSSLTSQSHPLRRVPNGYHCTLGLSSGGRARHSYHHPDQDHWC
T7 sequence (Q02410 whole entry): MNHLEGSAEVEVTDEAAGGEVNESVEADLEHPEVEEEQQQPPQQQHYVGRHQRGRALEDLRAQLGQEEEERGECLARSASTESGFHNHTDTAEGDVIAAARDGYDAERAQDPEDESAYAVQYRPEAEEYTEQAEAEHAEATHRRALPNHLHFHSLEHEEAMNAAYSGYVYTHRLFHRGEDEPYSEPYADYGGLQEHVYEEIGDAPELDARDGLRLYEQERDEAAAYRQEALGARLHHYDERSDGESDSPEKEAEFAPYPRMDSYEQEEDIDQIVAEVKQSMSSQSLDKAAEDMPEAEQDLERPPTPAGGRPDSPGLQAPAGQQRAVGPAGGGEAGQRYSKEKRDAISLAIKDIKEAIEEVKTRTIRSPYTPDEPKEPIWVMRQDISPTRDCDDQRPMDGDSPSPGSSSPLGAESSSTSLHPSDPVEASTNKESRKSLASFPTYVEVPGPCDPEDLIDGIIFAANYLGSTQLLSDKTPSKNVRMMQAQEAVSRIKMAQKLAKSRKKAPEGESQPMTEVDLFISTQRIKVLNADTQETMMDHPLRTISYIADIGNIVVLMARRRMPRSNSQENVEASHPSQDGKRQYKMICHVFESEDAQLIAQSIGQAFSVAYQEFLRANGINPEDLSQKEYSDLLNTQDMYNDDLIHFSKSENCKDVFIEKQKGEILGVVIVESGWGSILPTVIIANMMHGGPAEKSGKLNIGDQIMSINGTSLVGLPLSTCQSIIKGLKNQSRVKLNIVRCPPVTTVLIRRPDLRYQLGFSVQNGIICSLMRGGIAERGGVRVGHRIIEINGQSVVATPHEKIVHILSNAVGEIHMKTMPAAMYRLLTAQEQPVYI

[15] = target: T7, Voltage-gated N-type calcium channel alpha-1B subunit/Amyloid beta A4 precursor protein-binding family A member 1; assay type: protein assay; remark: listed apart in the source
[16] = target: T7, Voltage-gated N-type calcium channel alpha-1B subunit/Amyloid beta A4 precursor protein-binding family A member 1; assay: disruptors of Mint-PDZ/N-type channel peptide interaction – biochemical, HTRF, SAR follow-up (AID 2489); assay type: functional
[17] = HEp-2 cell cytotoxicity, dose response, cytotoxicity control for RSV inhibitor project, HTS (AID 2410); assay type: functional; conditions: human respiratory syncytial virus
Cytochrome P450 1A2 = target: T8, Cytochrome P450 1A2 (Homo sapiens, UniProt P05177);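 also: PubChem cytochrome P450 panel assay, CYP1A2 panel member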
T8 sequence (P05177 whole entry): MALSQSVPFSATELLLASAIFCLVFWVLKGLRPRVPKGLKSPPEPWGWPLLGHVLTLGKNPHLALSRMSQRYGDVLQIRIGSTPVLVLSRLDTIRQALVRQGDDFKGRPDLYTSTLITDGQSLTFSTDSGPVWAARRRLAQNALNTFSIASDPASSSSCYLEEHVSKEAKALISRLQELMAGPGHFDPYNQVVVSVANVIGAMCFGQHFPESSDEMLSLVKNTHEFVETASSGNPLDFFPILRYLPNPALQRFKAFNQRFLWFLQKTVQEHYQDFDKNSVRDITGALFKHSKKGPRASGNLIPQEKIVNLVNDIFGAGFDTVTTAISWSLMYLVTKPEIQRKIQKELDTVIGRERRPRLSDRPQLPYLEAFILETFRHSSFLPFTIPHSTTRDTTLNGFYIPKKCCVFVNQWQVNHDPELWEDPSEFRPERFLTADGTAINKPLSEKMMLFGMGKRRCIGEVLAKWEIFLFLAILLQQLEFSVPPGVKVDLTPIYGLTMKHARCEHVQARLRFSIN

Cytochrome P450 2C9 [18] = target: T2, Cytochrome P450 2C9; remark: listed apart in the source
[19] = NIH-3T3 fibroblast cytotoxicity, dose response, cytotoxicity control, cell-based, fluorescence, Alamar Blue, secondary assay (AID 2327); assay type: functional;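 also: NIH-3T3 mouse fibroblasts cultured with fluconazole at 8 µg/mL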
[20] = C. albicans growth with fluconazole, confirmation, fluorescence, retest (AID 2467); assay type: functional, cell-based
Cytochrome P450 3A4 [21] = target: T1, Cytochrome P450 3A4; remark: listed apart in the source
[22] = target: Dual specificity tyrosine-phosphorylation-regulated kinase 1A (Rattus norvegicus, UniProt Q63470); assay type: biochemical, Homo sapiens
Tumor necrosis factor = Tumor necrosis factor (Homo sapiens, UniProt P01375); assay: TNFa-triggered NF-kB activation inhibitors, SAR follow-up, cell-based, revised (AID 2337); assay type: functional
Sequence of Tumor necrosis factor (P01375 whole entry): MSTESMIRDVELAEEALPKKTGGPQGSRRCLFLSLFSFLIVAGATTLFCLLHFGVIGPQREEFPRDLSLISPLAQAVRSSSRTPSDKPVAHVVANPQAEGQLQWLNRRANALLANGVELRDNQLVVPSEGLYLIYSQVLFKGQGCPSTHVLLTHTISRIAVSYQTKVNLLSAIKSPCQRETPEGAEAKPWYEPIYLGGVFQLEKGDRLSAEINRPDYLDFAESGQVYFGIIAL

HEK293 [23] = assay: cells; conditions: Homo sapiens

Cc1nc(N2CCC(C)CC2)c2c(C)c(C(=O)Nc3cc(F)ccc3C)sc2n1
EC50 [1]: > 20 µM (inactive) | IC50 (HEK293 [2]): > 20 µM (inactive) | EC50 (HEK293 [3]): > 20 µM (inactive) | IC50 (HEK293 [4]): > 20 µM (inactive) | IC50 (HEK293 [5]): > 20 µM (inactive) | IC50 (HEK293 [6]): > 20 µM (inactive)

COc1ccc2c(c1)CN([C@H](C)[C@@H]1CC[C@@H]3[C@H]4CC[C@H]5C[C@@H](O)CC[C@@]5(C)[C@H]4CC[C@]31C)CO2
AC50 (Cytochrome P450 3A4 [7]): inconclusive | AC50 (Cytochrome P450 2C9 [8]): 7.94 µM (inconclusive)

Cc1cc(Cl)ccc1OC(C)C(=O)NCCCCc1ccccc1 (centres undefined)
CC50 [9]: > 40 µM (active)

O=C1COc2ccc(C(=O)CCl)cc2N1
EC50 (Protein RecA): 26.3 µM (active) | CC50 [9]: 31.8 µM (active) | AC50 [10]: 40.4 µM (active)

NC(=O)[C@@H]1CC2(CC(c3cccc(NC(=O)COc4ccc(Cl)cc4)c3)=NO2)CN1C(=O)COc1ccc(Cl)cc1 (some centres undefined)
CC50 [9]: > 40 µM (active)

Cc1c(C(=O)N(Cc2ccccc2)Cc2cccs2)cnn1-c1ccc(Cl)cc1
IC50 (Coagulation factor XII): > 50 µM (inactive) | IC50 [11]: 4.66 µM (not active) | AC50 [12]: 1.77 µM (active) | AC50 [13]: 3.44 µM (active)

Cc1cccc(NC(=O)C2(c3ccccc3)CC2(Cl)Cl)c1 (centres undefined)
AC50 (Cytochrome P450 3A4 [7]): inconclusive

O=C(CSc1ccc(Cl)cc1)Nc1cccc(-c2nc3ccccc3[nH]2)c1
IC50 [14]: 2.75 µM (active) | IC50 [15]: 36.7 µM (active) | IC50 [16]: 26.9 µM (active)

CC(CCc1ccc(O)cc1)NC(c1ccccc1)c1ccc(Cl)cc1 (centres undefined)
IC50 (cells): 11.8 µM (active) | CC50 [17]: 10.3 µM (active)

Oc1nc(COc2ccc(Br)cc2Cl)nc2ccccc12
IC50 (cells): 30.7 µM (active) | CC50 [17]: 23.6 µM (active)

COc1cccc(NC(=O)c2cc(-c3cccnc3)nc3c(Cl)cccc23)c1
CC50 [9]: 33.5 µM (active)

COc1ccc(-c2nc3cnc(N4CCN(C)CC4)nc3n(Cc3ccc(F)cc3)c2=O)cc1
AC50 (Cytochrome P450 3A4 [7]): inconclusive | AC50 (Cytochrome P450 1A2): 10 µM (inconclusive)

Cc1cc(C(C#N)c2cccc(Cl)c2)n2ncnc2n1 (centres undefined)
AC50 (Cytochrome P450 2C9 [18]): inconclusive | IC50 (Coagulation factor XII): > 50 µM (inactive) | EC50 [19]: > 160 µM (inactive) | EC50 [20]: 0.598 µM (active) | AC50 (Cytochrome P450 3A4 [21]): 14.1 µM (inconclusive)

CCc1c(C)nc(N)nc1N1N=C1SCC#N
IC50 (Coagulation factor XII): > 50 µM (inactive)

COc1ccc(/C=C/C(=O)Nc2cccc(C(C)=O)c2)cc1
AC50 [22]: 3.68 µM (active)

CN(C)c1ccc(NC(=O)c2ccc(CN3CCc4ccccc43)cc2)cc1
IC50 (Tumor necrosis factor): 5.37 µM (active) | IC50 (HEK293 [23]): > 20 µM (inactive)

C/C(=N\NC(=O)c1ccc(NS(=O)(=O)c2cccs2)cc1)c1ccc(C(C)(C)C)cc1
IC50 (cells): 8.48 µM (active) | CC50 [17]: 20.6 µM (active)
